The conditions of data set [1]: in vivo; cited from earlier work.
The nature of a further data set: LD50. The data set is classed as in vivo. The following applies: 70 kg human.
Data set [2] concerns viral infection of ACE2 expressing cell monolayers (WT spike). The data set is described as follows: Infectivity of ACE2 expressing cell monolayers by virus (WT spike) (FIGS. 3-6). The format is cell-based. The conditions noted are these: for infectivity of cells: concentrations between 1 mM and 0.01 mM. Here is the method: This is equivalent to a high dose of 515 mg/kg (1 mM) to the lowest dose of 5.15 mg/kg (0.01 mM). Assuming 100% biological distribution in a 70 kg human, 10^-4M is a dose of 3.5 g and 10^-5M is 350 mg.
This is equivalent to a high dose of 515 mg/kg (1 mM) to the lowest dose of 5.15 mg/kg.

Data set [3] relates to T. congolense-infected mice. The conditions noted are these: cited from earlier work.
Data set [4] deals with ACE2. The data set is described as follows: Externalization of ACE2 on cell surface, anti-human ACE2 antibody / horseradish peroxidase staining (FIG. 2). The format is cell-based. The following applies: human brain endothelial cells, 10 mM Diminazene for 3 hours, n=4. As for the experimental part:
FIG. 2 is a graph of externalization of ACE2 on cell surface after treatment with diminazene. The inventors cultured human brain endothelial cells to confluency and exposed these cells to 10 mM Diminazene for 3 hours after which they were fixed in 3.7% phosphate buffered formaldehyde for 30 mins. Cells were then incubated in 1:250 rabbit antibhuman ACE2 (overnite) followed by washes and then goat anti rabbit horseradish peroxidase (1 h).

The subject of data set [5] is ACE2. The format is cell-based.

Molecules are shown by their SMILES.

Take `N=C(N)c1ccc(/N=N/Nc2ccc(C(=N)N)cc2)cc1` [Diminazene, 4,4′-(1-Triazene-1,3-diyl) bis(benzenecarboximidamide)]: the LD50 (usually the dose at which mortality reaches 50%) in data set [1] is recorded as approximately 350 mg/kg. For the same compound, the “LD50 as total dose” value in “LD50” is recorded as approximately 24 grams. In addition, the infectivity of cells result is given as “dose-dependent reduction in the infectivity of cells” in data set [2] (infectious ratio 1:100 viruses per cell, FIG. 3); “dose-dependent reduction in the infectivity of cells” in data set [2] (infectious ratio 5:100 viruses per cell, FIG. 4); “dose-dependent reduction in the infectivity of cells” in data set [2] (infectious ratio 10:100 viruses per cell, FIG. 5). Also, the “serum pro-inflammatory cytokine levels” value in data set [3] is recorded as “reduces serum pro-inflammatory cytokine levels”. The “average ACE2 signal on cell surface of treated monolayers” value with ACE2 [4] is given as “increased average signal in treated monolayers consistent with externalization of ACE2 on the cell surface”.

For the compound `CC(=O)NCC(=O)O.CC(=O)NCC(=O)O.N=C(N)c1ccc(N=NNc2ccc(C(=N)N)cc2)cc1` [diminazene aceturate], the “externalization of ACE2” value with ACE2 [5] is reported as “concentration-dependently causes externalization of ACE2”. The “ACE2-mediated binding and signal of VSV virus-expressing COVID-spike protein in target cells” value in the data set with ACE2 [5] (target cells, FIG. 1) is “increases ACE2-mediated binding and signal”. Also, the “infectivity of cells expressing WT spike (amount of green signal produced by viral infection)” value in data set [2] (ACE2 expressing cell monolayers, infectious ratio 5:100 viruses per cell, 1 mM to 0.01 mM, FIG. 6) is “dose-dependent reduction in the infectivity of cells expressing WT spike”.

The record behind these values is patent publication US20220409637A1, “COVID-19 THERAPEUTICS AND METHODS OF TREATMENT” (priority 2020, published 2022).
